In patent publication US5614504A, “Method of making inosine monophosphate derivatives and immunopotentiating uses thereof” (The University of South Florida, priority 1995, dated 1997):
Read-outs that look alike come from different tables or passages of the source.

Legend:
[1] = Further set: percent hydrolysis by 5'-nucleotidase (Table 1B); type: in vitro ADME, Crotalus atrox; settings: rattlesnake, 20 minutes incubation, 200 μl
Experimental: Nucleotide samples (40-60 nmoles) were incubated at 37° C. for 10 minutes with 0.02 units 5'-nucleotidase in a total volume of 100 μl containing […] HEPES, pH 7.3 and […] MgCl2. […] Phosphate was determined by the absorbance of 820 nm. Blanks consisting of nucleotide but no enzyme were tested in parallel to correct for non-enzymatic hydrolysis.
The protocol was as hereinabove except that the first incubation was for 20 minutes in a total volume of 200 μl, 0.1 mM HEPES and 10 mM MgCl2. The percent hydrolysis of nucleotides was performed in duplicate for each assay.

[2] = system: human peripheral blood lymphocytes (HPBL); assay: Response of normal HPBL to PHA (tritiated thymidine incorporation); type: cell-based; settings: 0.1-100 μg/ml; FIG. 1
Experimental: (§1) In vitro: Both human peripheral blood lymphocytes (HPBL) and mouse spleen lymphocytes (MSL) were employed. […] For HPBL transformation, PHA and PWM were used at 0.5 μg/ml. For MSL transformation, Con A was used at 0.5 μg/ml, phytohemagglutinin (PHA, Murex Diagnostics, Atlanta, Ga.) at 0.5 μg/ml and lipopolysaccharide endotoxin (LPS, Sigma, St. Louis, Mo.) at 10 μg/ml.
(§2) They were cultured in microwell plates at 1.5×10^6 cells/ml of minimal essential media (MEM, Gibco Labs, Grand Island, N.Y.) with 5% fetal calf serum (FCS, Hyclone Labs, Logan, Utah) and tested for their proliferative response to mitogens as measured by incorporation of (^3 H) tritiated thymidine (New England Nuclear, Wilmington Del., […]; 2.5 μCi/ml) during a terminal pulse followed by liquid scintillation spectrometry.

[3] = system: mouse spleen lymphocytes (MSL); assay: Mouse spleen lymphocyte proliferation to Con A; type: cell-based
Experimental: as §1, §2

spleen lymphocytes = assay: In vitro response to mitogens following in vivo oral administration; set-up: species or system mice; settings: oral Me-IMP for five days, 0-100 mg/kg
Experimental: In vivo: Compounds were administered orally, by garage, or intraperitoneally. At termination, spleens were obtained as described in Florentin et al. (1982) and cells were prepared for proliferative response with Con A=0.5 μg/ml, PHA=0.5 μg/ml or LPS=0.5 μg/ml.
Spleen lymphocytes were obtained from mice that had been orally administered Me-IMP for five days, range of 0-100 mg/kg body weight, and then sacrificed. The spleen lymphocytes were incubated with PHA (0.5 μg/ml) or Con A (0.5 μg/ml) for 48 hours. Cultures were pulsed with tritiated thymidine for the last 18 hours.

[4] = system: Friend Leukemia Virus (FLV); assay: Survival of mice infected with Friend Leukemia Virus; type: in vivo, BALB/c mice; settings: 1 mg/kg/day i.p. day 3 to day 13; P<0.004 Wilcoxon
Experimental: Control mice were treated with saline intraperitoneally from day 3 to day 13 following infection, and Me-IMP treated mice were treated with 1 mg/kg/day from day 3 to day 13, and the day of death was recorded.

IL-2 = assay: PHA-induced IL-2 production; type: cell-based; settings: preliminary data
γ-IFN = assay: PHA-induced γ-IFN production; type: cell-based; settings: preliminary data
IL-10 = assay: PHA-induced IL-10 production; type: cell-based; settings: preliminary data
prothymocytes = settings: Touraine et al., 1991; cited from earlier work

COP(=O)(O)OC[C@H]1O[C@@H](n2cnc3c(=O)[nH]cnc32)[C@H](O)[C@@H]1O [Me-IMP, Methyl-5'-inosine-monophosphate]
metabolised at 20 min ([1]; read-out: Percent hydrolysis by 5'-nucleotidase, Assay 1): 1.5%
metabolised at 20 min ([1]; read-out: Percent hydrolysis by 5'-nucleotidase, Assay 2): 2.2%
metabolised at 20 min ([1]; read-out: Percent hydrolysis by 5'-nucleotidase, Assay 3): 2.6%
relative activity on HPBL response to PHA [2]: more active
relative potency, in vitro mouse lymphocyte proliferation [3]: most potent
proliferative responses of MSL to Con A ([3]; 0.1, 1, 10, 100 μg/ml, Con A 0.5 μg/ml): stimulated the proliferative responses
Con A response of spleen lymphocytes (spleen lymphocytes): stimulated
PHA response of spleen lymphocytes (spleen lymphocytes): stimulated
mean survival time (MST) [4]: larger mean survival time
effect on PHA-induced IL-2 (IL-2): only a small effect
effect on PHA-induced γ-IFN (γ-IFN): only a small effect
effect on IL-10 production (IL-10): potently inhibits
differentiation markers of prothymocytes (prothymocytes): induce differentiation markers of prothymocytes
